Source: patent publication US20250382298A1, “NITROGEN-CONTAINING COMPOUND AND USE THEREOF” (SUZHOU GENHOUSE BIO CO., LTD., priority 2022, published 2025)

How the values were obtained:
HT-29 cells [1] = assay: Detection of cell proliferation activity by CCK8 method (HT-29); assay type: cell-based, human; details: Homo sapiens, CCK8, 96 h
Excerpt: (§1) This assay can be used to examine the potency of compounds in inhibiting the proliferation of tumor cells (OVCAR3, HT-29, BT-549, HCT-116). A lower IC50 value indicates high potency of the compound as a KIF18A inhibitor in the following assay setup,
(§2) McCoy's 5A medium purchased from Sangon Biotech; CCK8 kit purchased from Beyotime; OVCAR3, HT-29, HCT-116, and BT-549 cells purchased from Shanghai Fuheng Biotechnology Co., Ltd.; multimode microplate reader (Thermo).
(§3) Cells at the logarithmic growth phase were taken, digested with a cell lysis buffer (trypsin), centrifuged, counted, and seeded into a 96-well plate at an appropriate cell density (BT549: 1500 cells/well in 1640 medium. HT-29 and HCT-116: 2000 cells/well in McCoy's 5A medium), with 180 μL per well, for a total of 60 wells. The surrounding wells were filled with an equal amount of PBS to prevent water evaporation from the edge wells. The next day after cell plating, the test compounds at different concentration gradients (with an initial final concentration of 10 μM, diluted in a 1:5 gradient to obtain 9 concentration gradients) were added to the wells. Three replicate wells were set up for each concentration point, and a corresponding DMSO negative control group was also set up. Detection: After 96 h of drug treatment, the test cell culture plate was removed from the incubator. All the liquid in the 96-well plate was aspirated, and 100 μL of medium containing 10% CCK8 solution was added to each well. The plate was then incubated at 37° C. for 2 h (the OD450 of the DMSO group reached 1.5 or more), and the absorbance at 450 nm was measured using a microplate reader
(§4) After the background value was subtracted from the measurement for each well, the inhibition rate was calculated. Inhibition Rate (%)=(1−Sample/Vehicle)×100. Sample is the luminescence value of the drug treatment group, and Vehicle is the luminescence value of the DMSO control group. A sigmoidal dose-survival rate curve was plotted using a non-linear regression model in the GraphPad Prism 7.0 software, and the IC50 values were calculated.

HCT-116 cells [2] = assay: Mitotic index analysis, pH3 expression in HCT-116 cells; assay type: cell-based; details: Homo sapiens, 24 h treatment
Description: (§5) HCT-116 and HT-29 cells at the logarithmic growth phase were taken, digested with a cell lysis buffer (trypsin), centrifuged, counted, and seeded into a 96-well plate at an appropriate cell density (20000 cells/well), with 100 μL per well. The surrounding wells were filled with an appropriate amount of PBS to prevent water evaporation. The next day, the cells were treated with the compounds at different concentrations (with a starting concentration of 10 μM, 3-fold diluted to obtain 9 concentration gradients). After 24 h, the medium was aspirated, and the cells were washed twice with 100 μL of PBS. The cells were then fixed with 4% paraformaldehyde and incubated at room temperature for 15 min. The fixative solution was discarded, and the cells were washed with PBS. Then, 150 μL of specialized blocking solution (containing 1% Triton-100) was added to each well for blocking at room temperature for 2 h, and the plate was washed with PBS to remove excess blocking solution. Anti-phistone H3 (pH3) was diluted at a ratio of 1:1000 with a blocking solution containing 0.033% Triton-100, and a blank control group was set up. Then, incubation was performed at 4° C. overnight. The next day, the plate was washed twice with 1×PBST. Anti-rabbit-IgG (H+L) (CST) and DRAQ5 (Thermofisher) were each diluted at an appropriate ratio with a blocking solution containing 0.033% Triton-100 (secondary antibody: 1:2000; DRAQ5: 1:10000). Then, incubation was performed at room temperature for 2 h. The plate was washed twice with 1×PBST and once with PBS. Fluorescence signals at 700 nm and 800 nm were detected using a Li—COR Odyssey two-color near-infrared laser imager. Calculation was performed as follows: pH3 expression (%)=(Cmpd dose/DMSO control)×100. Cmpd dose is the value of the drug treatment group, and DMSO control is the value of the DMSO control group. The EC50 values were determined by fitting using the GraphPad Prism 7.0 software.

OVCAR3 cells [3] = assay: Detection of cell proliferation activity by CCK8 method (OVCAR3); assay type: cell-based; details: Homo sapiens, OVCAR-3, CCK8, 96 h
Excerpt: as §1, §2, §3, §4

HCT-116 cells [4] = assay: Detection of cell proliferation activity by CCK8 method (HCT-116); assay type: cell-based; details: Homo sapiens, CCK8, 96 h
Excerpt: as §1, §2, §3, §4

OVCAR3 cells [5] = assay: Detection of OVCAR3 cell proliferation activity by CTG method; assay type: cell-based; details: Homo sapiens, OVCAR-3, 168 h, CellTiter-Glo, 7 days
Excerpt: as §1
1640 medium; fetal bovine serum; penicillin/streptomycin antibiotics purchased from Wisent; CellTiter-Glo (chemiluminescence detection reagent for cell viability) reagent purchased from Promega; OVCAR3 cell line purchased from Nanjing Cobioer Biosciences Co., Ltd.; Nivo multimode microplate reader (PerkinElmer),
OVCAR3 cells were seeded into a white 96-well plate, with 80 μL of cell suspension containing 2000 OVCAR3 cells added to each well. The cell plate was incubated in a CO2 incubator overnight.
A test compound was 5-fold diluted to the 8th concentration (i.e., from 2 mM to […]) using a multichannel pipette, with duplicate wells set up. To an intermediate plate was added 78 μL of medium, and the serially diluted compound was transferred to the corresponding wells of the intermediate plate at 2 μL/well. The mixture was mixed well and then transferred to the cell plate at 20 μL/well. The concentration of the compound transferred to the cell plate ranged from 10 μM to 0.026 nM. The cell plate was incubated in a CO2 incubator for 7 days. Another cell plate was prepared and read for signal values on the day of compound addition, and these values were used as the maximum values (the Max value in the equation below) in data analysis. To this cell plate was added the chemiluminescence detection reagent for cell viability at 25 μL/well, and the luminescence signals were stabilized by incubation at room temperature for 10 min. Readings were taken using the multimode microplate reader.
To the cell plate was added the chemiluminescence detection reagent for cell viability at 25 μL/well, and the luminescence signals were stabilized by incubation at room temperature for 10 mm. Readings were taken using the multimode microplate reader, […]

BT-549 cells = assay: Detection of cell proliferation activity by CCK8 method (BT-549); assay type: cell-based; details: Homo sapiens, CCK8, 96 h
Excerpt: as §1, §2, §3, §4

HT-29 cells [6] = assay: Mitotic index analysis, pH3 expression in HT-29 cells; assay type: cell-based, human; details: Homo sapiens, 24 h treatment
Description: as §5

[7] = Pharmacokinetic test in mice; assay type: in vivo; details: BALB/c mice, PO @30mpk; for AUC / Cmax / half-life: mouse, plasma, 30 mg/kg; for half-life: read-out: t½ (converted)
Description: In this example, the pharmacokinetic behavior of the compounds after intravenous injection (IV) and intragastric (PO) administration in BALB/c mice was tested.
On the day of administration, mice were weighed for actual body weight and the administration volume was calculated. Each compound was tested in two groups with 9 mice in each group; one group was subjected to administration by single intravenous injection, and the other group of mice was subjected to single intragastric administration. Whole blood samples were collected via the orbit at prescribed time points (0.25 h, 0.5 h, 1 h, 2 h, 4 h, 8 h, and 24 h after administration). After blood sample collection, the samples were immediately transferred to labeled commercial sample tubes containing K2-EDTA (0.85-1.15 mg), followed by centrifugation (3200×g, 4° C., 10 min) and plasma collection. The plasma was transferred to a pre-cooled centrifuge tube, frozen in dry ice, and then stored in an ultra-low temperature freezer at −60° C. or lower until the LC-MS/MS analysis.
Plasma concentrations were determined by the LC-MS/MS method. Plasma drug concentration data for the compounds were processed using a non-compartmental model in the WinNonlin Version 6.3 (Pharsight, Mountain View, CA) pharmacokinetic software. The relevant pharmacokinetic parameters were calculated by a linear-log trapezoidal method.

| IC50 (HT-29 cells [1]) [nM] | EC50 (HCT-116 cells [2]) [nM] | IC50 (OVCAR3 cells [3]) [nM] | IC50 (HCT-116 cells [4]) [nM] | IC50 (OVCAR3 cells [5]) [nM] | IC50 (BT-549 cells) [nM] | EC50 (HT-29 cells [6]) [nM] | F [7] [%] | AUC [7] [µM·h] | Cmax [7] [µM] | half-life [7] [h] | Structure (SMILES) |
| --- | --- | --- | --- | --- | --- | --- | --- | --- | --- | --- | --- |
| 93.8 | > 10000 | 41.8 | > 10000 | 67.6 | 111 | 64 |  |  |  |  | O=C(Nc1cn2ccnc2c(N2CCC3(CC2)CC3)n1)c1ccc(NS(=O)(=O)CCO)cc1N1CCC2(CC1)CC2 [Compound 31] |
| 338 | > 10000 |  | > 10000 | 53 | 192 | 94 |  |  |  |  | O=C(Nc1cc2nccn2c(N2CCC(F)(F)CC2)n1)c1ccc(NS(=O)(=O)CCO)cc1N1CCC2(CC1)CC2 [Compound 16] |
| 12.7 | > 10000 | 6.8 | > 10000 |  | 54.4 | 4.6 | 109 | 380 | 25.8 | 7.8 | Cn1ncc2cc(NC(=O)c3ccc(NS(=O)(=O)CCO)cc3N3CC4CCC(C4)C3)nc(N3CCC(F)(F)CC3)c21 [Compound 55] |
|  |  |  |  | 122 |  |  |  |  |  |  | O=C(Nc1cc2ccccc2c(N2CCC(F)(F)CC2)n1)c1ccc(NS(=O)(=O)CCO)cc1N1CC2CCC(C2)C1 [Compound 9] |
| 35.7 | > 10000 | 26.1 | > 10000 |  | 54.7 | 13.7 | 67 | 272 | 14.2 | 62.3 | O=C(Nc1cn2c(F)cnc2c(N2CCC(F)(F)CC2)n1)c1ccc(NS(=O)(=O)CCO)cc1N1CC2CCC(C2)C1 [Compound 51] |
| 44.7 | > 10000 | 32.8 | > 10000 |  | 170 | 26.7 | 16 | 78.3 | 4.56 | 13 | CS(=O)(=O)Nc1ccc(C(=O)Nc2cn3ncnc3c(N3CCC(F)(F)CC3)n2)c(N2CC3CCC(C3)C2)c1 [Compound 53] |

| Structure (SMILES) | IC50 (HT-29 cells [1]) [nM] | EC50 (HCT-116 cells [2]) [nM] | IC50 (OVCAR3 cells [3]) [nM] | IC50 (HCT-116 cells [4]) [nM] | IC50 (OVCAR3 cells [5]) [nM] | IC50 (BT-549 cells) [nM] | EC50 (HT-29 cells [6]) [nM] | F [7] [%] | AUC [7] [µM·h] | Cmax [7] [µM] | half-life [7] [h] |
| --- | --- | --- | --- | --- | --- | --- | --- | --- | --- | --- | --- |
| Cc1cc(NC(=O)c2ccc(NS(=O)(=O)CCO)cc2N2CC3CC(C3)C2)nc(N2CCC(F)(F)CC2)n1 [Compound 4] |  |  |  |  | 186 |  |  |  |  |  |  |
